Data from PubChem BioAssay (NCI).
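How tested: cells in 96-well plates exposed to compound for 48 hours at five concentrations. At the GI50, growth is halved. TGI: concentration producing complete growth inhibition.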

Key:
Test in all cases: NCI-60 cell line screen, 48 h
786-0 renal = system: 786-0 renal
ACHN renal = system: ACHN renal
CAKI-1 renal = system: CAKI-1 renal
HCC-2998 colon = system: HCC-2998 colon
LOX IMVI melanoma = system: LOX IMVI melanoma
U251 CNS = system: U251 CNS
UACC-257 melanoma = system: UACC-257 melanoma
HCT-116 colon = system: HCT-116 colon
SR leukemia = system: SR leukemia
MDA-MB-231 breast = system: MDA-MB-231 breast

Structure (SMILES)	TGI (786-0 renal) [µM]	TGI (ACHN renal) [µM]	TGI (CAKI-1 renal) [µM]	TGI (HCC-2998 colon) [µM]	TGI (LOX IMVI melanoma) [µM]	TGI (U251 CNS) [µM]	TGI (UACC-257 melanoma) [µM]	TGI (HCT-116 colon) [µM]	TGI (SR leukemia) [µM]	GI50 (786-0 renal) [µM]	GI50 (ACHN renal) [µM]	GI50 (CAKI-1 renal) [µM]	GI50 (HCC-2998 colon) [µM]	GI50 (HCT-116 colon) [µM]	GI50 (LOX IMVI melanoma) [µM]	GI50 (SR leukemia) [µM]	GI50 (U251 CNS) [µM]	GI50 (UACC-257 melanoma) [µM]	TGI (MDA-MB-231 breast) [µM]	GI50 (MDA-MB-231 breast) [µM]
Nc1c(-c2cn(Cc3ccccc3)c3ccccc23)[n+]([O-])c2ccccc2[n+]1[O-]	> 100	> 100	68	> 100	> 100	> 100	35.5													
COc1cccc2ccc(C(=O)c3ccccc3)nc12	> 100	> 100	> 100	> 100	> 100	> 100		> 100	> 100											
CN1C(=O)CCC2[C@@H]3CC=C4C[C@@H](O)CC[C@]4(C)C3CC[C@@]21C (some centres undefined)	> 100	> 100	> 100	> 100		> 100	> 100	> 100												
COc1ccc2c(c1)[n+]([O-])c(-c1ccc([N+](=O)[O-])cc1)c(N)[n+]2[O-]	> 100	> 100	> 100			> 100	> 100	> 100	> 100											
O=C1CC(c2c(-c3ccccc3)[nH]c3ccccc23)C(=O)N1 (centres undefined)	> 100	> 100	> 100	> 100		> 100	> 100	> 100												
C#CCNC(=O)N(CC#C)N=O	> 100	> 100	> 100	> 100	> 100	> 100	> 100	> 100												
COc1ccc(C(CCC(C)=O)C(=O)O)cc1OC (centres undefined)	> 100	> 100	> 100		> 100	> 100	> 100	> 100	> 100											
N.N.NCCCCCN.O=C([O-])CCl.O=C([O-])CCl.O=C([O-])CCl.O=C([O-])CCl.[Pt+4].[Pt+4]	24.4	29.9	7.55	28	> 100	40.6	94.6	> 100	16.8	3.36	3.39	1.2	11.6	10.8	5.93	1.73	5.06	9.12		
CCOC(=O)c1ccc2c(c1)Cc1cc([N+](=O)[O-])ccc1-2	> 100	> 100	> 100		> 100	> 100	> 100	> 100											> 100	
COc1c(C)cc(O)cc1C=O	> 100	> 100	> 100	> 100	> 100	> 100	> 100													
COc1ccccc1NC(=O)C1=C(C)NC(C)=C(C(=O)Nc2ccccc2OC)C1C1=CC=COC1	> 100	> 100	56.8	50.2		77.1	68.3	17.2												
COC(=O)CCC(NC(=S)N/N=C/c1ccccn1)C(=O)OC (centres undefined)	> 100	> 100		> 100	> 100	> 100	> 100	> 100	> 100											
CN(C)c1ccc(/C=C/C(=O)[O-])cc1.CN(C)c1ccc(/C=C/C(=O)[O-])cc1.[Cu+2]	> 100	> 100	> 100	> 100	> 70.8	> 100	> 100	> 100		59.5							37.2			
O=[N+]([O-])c1ccc(C2CC(c3ccccc3Cl)=Nc3ccccc3S2)cc1 (centres undefined)	12.3	42.9	> 73.5	54.2	11.8	12.2	35.5	4.92	5.27											
COc1ccc2sc3cccc(NCCN(C)C)c3c(=O)c2c1	14.5	6.92	15.5	3.39			3.32	9.69	5.86	3.14	2.4	3.72	1.83	2.78		2.29		1.78	4.29	1.57
Cc1cc([N+](=O)[O-])ccc1NC(=O)C(=O)C(C(=O)c1ccccc1-c1ccccc1)C1OC(=O)c2ccccc21 (centres undefined)	32.5	> 100	59.5	29.1		26	86.5	29.9	54.7											
c1ccc([CH2][Sn]([CH2]c2ccccc2)([O]c2cccc3cccnc23)[O]c2cccc3cccnc23)cc1	0.385	2.2	2.2	0.418	1.65	0.463	0.836	1.19		0.155	1.03	0.92	0.201	0.211	0.53		0.218	0.302		
CC(=O)Nc1ccc(/C=c2\sc3nnc(CCC(=O)Nc4ccccc4Cl)n3c2=O)cc1	48.9	> 100	> 100	> 10	34.5	31.8	> 10	> 100	43.2											
O=C(/C=C/c1ccco1)c1cc(F)c(Cl)cc1Cl	55.4	45.1	> 100		58.2	46	50.5	31.6	> 100	22.3	20.1	32.7		14.9	22.4	23	19.3	24.6	58	21.9
COC1=CC(c2ccc[nH]2)=N/C1=C\c1[nH]c(C)c(CC(=O)OCc2ccccc2)c1CCC(=O)OCc1ccccc1	1.53	1.02	2.21		1.03	1.68	3.1	1.04	0.74	0.376	0.333	0.343		0.233	0.284	0.236	0.345	0.721	1.67	0.224
